Tests used:
ERK1/2 = test: Western blot of ERK1/2 phosphorylation in Mino cells; assay type: cell-based, Human
Procedure: Binding of FTY720 accelerates homing of peripheral lymphocytes to lymph node and activation of […] leads to extracellular signal-related kinase 1/2 (ERK1/2) phosphorylation. To determine if FTY720 influenced phosphorylation status of ERK-1, Mino cells were treated with FTY720 and the ERK1/2 phosphorylation status was analyzed by westernblot analysis using phospho ERK-1/2 and ERK1/2 antibodies. […] Similar FTY720 induced time dependent phosphorylation of ERK1/2 was also observed in Jeko cell line (Data not shown). FTY720 induced activation Ras-Raf-MAP kinase signaling pathway resulting in activation of serine/threonine kinase may contribute to ERK1/2 phosphorylation. Consistent with hypothesis ERK1/2 phosphorylation has been reported to occur in cells treated with Sphingosie 1-phosphate, that shares structural similarity to FTY72014. The role of FTY720 induced Erk1/2 phosphorylation in either toxicity, deregulation of the proteins such as Cyclin D1 or Akt and/or accumulation cells in G1 with concomitant decrease in S phase remains to be tested. Nevertheless these studies have identified Cyclin D1 and Akt proteins as two potential biomarkers for FTY720 responsiveness in MCL patient cells.

[1] = system: CD19+ B cells from CLL patients; assay type: cell-based; settings: 0-10 uM FTY720; 15 CLL patients
Procedure: Cells: Blood was obtained from patients with B-cell CLL with informed consent under a protocol approved by the hospital internal review board. All patients examined in this series had immunophenotypically defined CLL as outlined by the modified 96 National Cancer Institute criteria. B-CLL cells were isolated from freshly donated blood using ficoll density gradient centrifugation (Ficoll-Paque Plus, Amershan Biosciences, Piscataway, N.J.). Isolated mononuclear cells were incubated in RPMI 1640 media (Gibco/Invitrogen, Carlsbad, Calif.) supplemented with 10% heat-inactivated fetal bovine serum (FBS, Hyclone Laboratories, Logan, Utah), 2 mM L-glutamine (Invitrogen, Carlsbad, Calif.), and penicillin (100 U/mL)/streptomycin (100 μg/ml) [Sigma-Aldrich, St. Louis] at 37° C. in an atmosphere of 5% CO2. Freshly isolated B-CLL cells were used in all experiments described herein. Enriched B-lymphocyte fractions were prepared by using MACS negative selection kit by Miltenyi Biotech (Auburn, Calif.) or by “Rosette-Sep” kit from Stem Cell Technologies (Vancouver, British Columbia, Canada) according to the manufacturer's instructions. Human B-lymphocyte cell lines Raji and Ramos were obtained from ATCC (Manassas, Va.) and the MEC cells were obtained from German cell line bank (Braunschweig, Germany). The 697-neo and 697-Bcl-2 cell lines were kind gift from Dr. John Reed (Burnham Institute, La Jolla, Calif.). Cells were cultured at 37° C. in an atmosphere of 5% CO2 in RPMI 1640 media (Gibco/Invitrogen, Carlsbad, Calif.) supplemented with 10% fetal bovine serum (Gibco/Invitrogen).
(§1) Analysis of cell viability and apoptosis: The cell viability was carried out by dual staining with Annexin V conjugated to flourescein-isothyocyanate (FITC) and Propidium iodide (PI) as described previously. Briefly, 1×10^6 cells were stained with Annexin V-FITC (BD Pharmingen) and Propidium iodide (BD Pharmingen) for 15 minutes in dark and analyzed by flow cytometry using a Beckman-Coulter EPICS XL cytometer (Beckman-Coulter, Miami, Fla.). Apoptotic cells were identified as Annexin V and/or PI positive cells. Cells excluding both FITC and PI were considered to be viable. The Annexin V^−/PI^− cells are represented as % live cells normalized to untreated controls.
B-CLL cells are reported to be resistant to apoptosis in-vivo. To systematically analyze the effects of FTY720 on B-CLL cells, purified CD19^+ cells from B-CLL patients were incubated with increasing concentrations of FTY720 ranging from 0, 0.5, 1, 1.5, 2.5, 5 or 10 uM. The cytotoxic effects were independently determined by flow cytometry using propidium iodide (PI) and Annexin V conjugated FITC reagents. Populations excluding both PI and Annexin V-FITC staining were considered viable. […]

[2] = system: 697-neo and 697-Bcl-2 cell lines; test: Annexin V/PI viability in 697-neo and 697-Bcl-2 cells; assay type: cell-based, Human; settings: 24 hours
Procedure: Cells: Blood was obtained from patients with B-cell CLL with informed consent under a protocol approved by the hospital internal review board. All patients examined in this series had immunophenotypically defined CLL as outlined by the modified 96 National Cancer Institute criteria. B-CLL cells were isolated from freshly donated blood using ficoll density gradient centrifugation (Ficoll-Paque Plus, Amershan Biosciences, Piscataway, N.J.). Isolated mononuclear cells were incubated in RPMI 1640 media (Gibco/Invitrogen, Carlsbad, Calif.) supplemented with 10% heat-inactivated fetal bovine serum (FBS, Hyclone Laboratories, Logan, Utah), 2 mM L-glutamine (Invitrogen, Carlsbad, Calif.), and penicillin (100 U/mL)/streptomycin (100 μg/ml) [Sigma-Aldrich, St. Louis] at 37° C. in an atmosphere of 5% CO2. Freshly isolated B-CLL cells were used in all experiments described herein. […]
as §1, with “Apoptotic cells were identified as Annexin V and/or PI positive cells. Cells excluding both FITC and PI were considered to be viable. The Annexin V^−/PI^− cells are represented as % live cells normalized to untreated controls.” left out

Mino cells = test: Cell cycle analysis by flow cytometry in Mino cells; assay type: cell-based, Human; settings: compared to vehicle control
Procedure: Deregulated cyclin D1 expression contributes to cell cycle defects in MCL cells. […] Mino cells were treated with FTY720 for 12, 24 and 48 hrs and subjected to cell cycle analysis by flow cytometry. […] This decrease in S phase is entry is further reflected by accumulation of cells in G1 phase of the cell cycle.

CCCCCCCCc1ccc(CCC(N)(CO)CO)cc1.Cl [FTY720, 2-Amino-2-[2-(4-octylphenyl)ethyl]propane 1,3-diol hydrochloride]
earliest time of ERK1/2 phosphorylation (ERK1/2): 2 h | time of maximal ERK1/2 phosphorylation (ERK1/2): 4 h | viability of CD19+ B cells from CLL patients [1]: dose and time dependent decrease in viability | cellular cytotoxicity in 697-neo versus 697-Bcl-2 over expressing cell line [2]: comparable levels of cellular cytotoxicity | reduction in cells in S-phase (Mino cells): ~48%

From US8318812B2, “Therapeutic agents for the treatment of lymphoid malignancies” (The Ohio State University Research Foundation, priority 2006, dated 2012)
